Tests used:
[1] = system: human corneal epithelial cell; assay: Evaporative drying culture model, Annexin V/PI apoptotic/necrotic cells; type: cell-based; conditions: 0.25% in culture medium, 4 hrs evaporative drying, 34° C.
Protocol: A in vitro human corneal epithelial cell culture model was used where cells were cultured under a slow drying condition with the culture medium slowly evaporated over the time period of 4-4.5 hours at 34° C. (the temperature of human eyes) to mimic tear film evaporation.

[2] = Effect on final osmolarity of culture medium (vapour pressure osmometer); type: physicochemical; conditions: up to 10 mM; results not shown
Protocol: (§1) 500 mOsm and exposure time (16 h) to be the most informative under which to observe hyperosmolality induced cellular responses of HCLE (results not shown). Thus, in the present study, a hyperosmotic medium of 500 mOsm and exposure time of 16 h were used throughout. Hyperosmolar media were prepared by the addition of NaCl to the medium. Medium osmolarity was measured using a Vapro 5520 vapour pressure osmometer (Wescor, Logan, Utah). Subconfluent cells were exposed to hyperosmolar media in the presence or absence of betaine (5 or 10 mM). Mitochondrial and proliferation activities for cell viability; TNF-α production; caspase activity and Annexin V/PI staining for apoptosis; and cellular shrinkage were monitored as detailed below.

HCLE cells [3] = assay: MTT mitochondrial activity after hyperosmolar medium; type: cell-based, human; conditions: 5 or 10 mM, 500 mOsm, 16 h, vs hyperosmotic control
Protocol: as §1
(§2) MTT viability assay kit was used to measure cell viability (above). CyQUANT cell proliferation assay kit (Invitrogen-Molecular probe, Eugene, Oreg.) was used to determine the cell number. Culture supernatants were removed and centrifuged at 1500 rpm for 10 min to harvest any detached cells from the supernatant. Remaining cells were rinsed once with PBS. […] Fluorescence, indicating cell viability, was measured using SpectraFluor Plus microplate reader (Tecan, Männedorf, Switzerland); 485 nm for excitation and 535 nm for emission maxima.

HCLE cells [4] = assay: Annexin V/PI/Hoechst staining, confocal microscopy, damaged cells; type: cell-based, human; conditions: 500 mOsm + 10 mM, 16 h
Protocol: Cells undergoing apoptosis or necrosis were identified using Alexa Fluor 488 annexin V/Dead cell apoptosis assay (Invitrogen-Molecular probe) with some modifications. Cells were seeded at 6.5×10^4 cells mL^−1 in 75 cm^2 cell culture flask and incubated overnight. Once the cells reached 70%-80% confluence, they were subjected to different osmolarity treatments for 16 hours. Supernatants were removed and retained for collection of non-adherent cells. Adherent cells were rinsed twice with PBS and detached using 0.05% trypsin. The culture supernatant and trypsin digests were pelleted, rinsed twice in PBS, and combined during resuspenison in annexin-binding buffer. Five microlitres of Alexa Fluor 488 annexin V, 12.5 μg mL^−1 of Hoechst 33342 and 1 μg mL^−1 of propidium iodide (PI) were added to 100 μL of cell suspension containing approximately 1×10^5 cells and incubated at room temperature for 15 minutes. Cells were washed with 200 μL of annexin-binding buffer and deposited onto coverslips. […] Cells stained with annexin V, PI or Hoechst for apoptotic, necrotic or total cells, respectively, were quantified for each image using ImageJ (http://rsbweb.nih.gov/ij/; National Institutes of Health, Bethesda, Md.) to obtain an average value for each treatment.

HCLE cells [5] = assay: CyQUANT cell number after hyperosmolar medium; type: cell-based, human; conditions: 5 or 10 mM, 500 mOsm, 16 h, vs hyperosmotic control
Protocol: as §1, §2

SMILES | cellular damage (apoptotic and necrotic cells) caused by evaporation-increased osmolarity [1] | effect on the final osmolarity of the medium [2] | increase in mitochondrial activity (HCLE cells [3]) [%] | percentage of damaged cells (of the total cells) (HCLE cells [4]) [%] | increase in cell numbers (HCLE cells [5]) [%]
C[N+](C)(C)CC(O)CC(=O)[O-] (centres unmarked) [carnitine, 3-hydroxy-4-(trimethylazaniumyl)butanoate] | minimised the cellular damage | – | – | – | –
C[N+](C)(C)CC(=O)[O-] [betaine, trimethylglycine] | – | minimal effect | 17 | 7.5 | 12

From patent US10912752B2, “Methods and compositions for reducing ocular discomfort” (Brien Holden Vision Institute Limited, priority 2012, dated 2021)
